Results from article PMC9329436, “Optimization of the 4-anilinoquin(az)oline scaffold as epidermal growth factor receptor (EGFR) inhibitors for chordoma utilizing a toxicology profiling assay platform” (Scientific Reports, 2022).
Read-outs that look alike come from different tables or passages of the source.

Key:
Type in all cases: biochemical
[1] = biological target: 320 wild-type protein kinases (Homo sapiens, UniProt O43293); settings: singlicate
Text: (§1) Table S4. Profiling of two compounds at two concentrations against 320 wild-type protein kinases; singlicate measurement; Residual activities (% of control).

[2] = biological target: 320 wild-type protein kinases (Homo sapiens, UniProt P16234); settings: PDGFR-alpha, singlicate
Text: as §1

[3] = biological target: 320 wild-type protein kinases (Homo sapiens, UniProt P27037); settings: ACV-R2A, singlicate
Text: as §1

[4] = biological target: 320 wild-type protein kinases (Homo sapiens, UniProt P51451); settings: BLK, singlicate
Text: as §1

[5] = biological target: 320 wild-type protein kinases (Homo sapiens, UniProt Q13555); settings: CAMK2G, singlicate
Text: as §1

[6] = biological target: T1, 320 wild-type protein kinases (Homo sapiens, UniProt Q99683); settings: singlicate
T1 sequence (Q99683 1-1374): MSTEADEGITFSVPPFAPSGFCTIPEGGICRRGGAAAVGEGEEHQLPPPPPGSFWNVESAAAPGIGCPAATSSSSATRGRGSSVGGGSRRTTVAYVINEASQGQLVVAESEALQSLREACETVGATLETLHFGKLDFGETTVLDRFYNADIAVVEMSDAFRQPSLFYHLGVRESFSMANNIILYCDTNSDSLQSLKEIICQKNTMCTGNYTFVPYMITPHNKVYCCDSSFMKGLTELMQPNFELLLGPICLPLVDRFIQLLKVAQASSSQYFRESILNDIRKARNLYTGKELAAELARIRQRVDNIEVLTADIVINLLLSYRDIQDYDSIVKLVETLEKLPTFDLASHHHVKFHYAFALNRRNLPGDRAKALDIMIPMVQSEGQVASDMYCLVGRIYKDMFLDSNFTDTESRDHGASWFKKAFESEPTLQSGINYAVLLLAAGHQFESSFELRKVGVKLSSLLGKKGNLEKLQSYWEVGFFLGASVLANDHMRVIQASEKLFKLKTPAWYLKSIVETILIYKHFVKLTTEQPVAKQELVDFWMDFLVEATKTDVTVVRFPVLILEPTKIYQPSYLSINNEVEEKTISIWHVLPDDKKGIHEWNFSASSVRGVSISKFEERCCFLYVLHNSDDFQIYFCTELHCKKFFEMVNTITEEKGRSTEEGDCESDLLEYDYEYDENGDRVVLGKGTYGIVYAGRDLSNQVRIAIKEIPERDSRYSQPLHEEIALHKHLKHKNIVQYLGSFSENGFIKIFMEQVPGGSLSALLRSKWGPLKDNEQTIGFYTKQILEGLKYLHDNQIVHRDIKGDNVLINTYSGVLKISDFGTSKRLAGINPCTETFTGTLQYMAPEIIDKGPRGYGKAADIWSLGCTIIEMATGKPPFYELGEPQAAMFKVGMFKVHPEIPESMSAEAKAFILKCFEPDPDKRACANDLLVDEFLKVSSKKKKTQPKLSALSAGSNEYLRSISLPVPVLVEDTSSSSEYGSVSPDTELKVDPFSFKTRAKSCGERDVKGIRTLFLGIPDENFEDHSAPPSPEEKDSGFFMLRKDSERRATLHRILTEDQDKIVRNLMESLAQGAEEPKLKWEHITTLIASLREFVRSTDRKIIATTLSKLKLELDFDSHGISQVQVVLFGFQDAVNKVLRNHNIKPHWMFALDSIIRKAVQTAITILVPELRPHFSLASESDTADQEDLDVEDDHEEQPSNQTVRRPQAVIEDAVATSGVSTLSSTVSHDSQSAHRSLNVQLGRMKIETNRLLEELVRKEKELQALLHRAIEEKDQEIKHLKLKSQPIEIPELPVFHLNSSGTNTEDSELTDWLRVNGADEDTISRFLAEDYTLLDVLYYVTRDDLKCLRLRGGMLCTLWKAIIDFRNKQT
Text: as §1

[7] = biological target: 320 wild-type protein kinases (Homo sapiens, UniProt Q9BQI3); settings: HRI, singlicate
Text: as §1

[8] = biological target: T2, 320 wild-type protein kinases (Homo sapiens, UniProt Q9NR20); settings: singlicate
T2 sequence (Q9NR20 1-520): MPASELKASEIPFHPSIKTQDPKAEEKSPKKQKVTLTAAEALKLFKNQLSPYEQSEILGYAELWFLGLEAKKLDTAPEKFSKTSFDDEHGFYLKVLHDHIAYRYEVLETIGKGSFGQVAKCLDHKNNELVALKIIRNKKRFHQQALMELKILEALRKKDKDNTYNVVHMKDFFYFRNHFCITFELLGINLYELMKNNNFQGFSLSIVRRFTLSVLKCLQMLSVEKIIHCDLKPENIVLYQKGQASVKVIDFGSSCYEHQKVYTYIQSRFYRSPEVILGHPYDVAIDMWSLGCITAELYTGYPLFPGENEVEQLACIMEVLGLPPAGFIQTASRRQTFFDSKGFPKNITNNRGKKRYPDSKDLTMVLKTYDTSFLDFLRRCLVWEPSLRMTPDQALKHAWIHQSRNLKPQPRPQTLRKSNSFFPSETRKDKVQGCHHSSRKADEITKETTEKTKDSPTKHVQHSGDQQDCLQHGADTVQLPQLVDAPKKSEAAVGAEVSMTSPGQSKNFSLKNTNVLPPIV
Text: as §1

Sequence of 320 wild-type protein kinases (Homo sapiens, UniProt Q9BQI3) (Q9BQI3 whole entry): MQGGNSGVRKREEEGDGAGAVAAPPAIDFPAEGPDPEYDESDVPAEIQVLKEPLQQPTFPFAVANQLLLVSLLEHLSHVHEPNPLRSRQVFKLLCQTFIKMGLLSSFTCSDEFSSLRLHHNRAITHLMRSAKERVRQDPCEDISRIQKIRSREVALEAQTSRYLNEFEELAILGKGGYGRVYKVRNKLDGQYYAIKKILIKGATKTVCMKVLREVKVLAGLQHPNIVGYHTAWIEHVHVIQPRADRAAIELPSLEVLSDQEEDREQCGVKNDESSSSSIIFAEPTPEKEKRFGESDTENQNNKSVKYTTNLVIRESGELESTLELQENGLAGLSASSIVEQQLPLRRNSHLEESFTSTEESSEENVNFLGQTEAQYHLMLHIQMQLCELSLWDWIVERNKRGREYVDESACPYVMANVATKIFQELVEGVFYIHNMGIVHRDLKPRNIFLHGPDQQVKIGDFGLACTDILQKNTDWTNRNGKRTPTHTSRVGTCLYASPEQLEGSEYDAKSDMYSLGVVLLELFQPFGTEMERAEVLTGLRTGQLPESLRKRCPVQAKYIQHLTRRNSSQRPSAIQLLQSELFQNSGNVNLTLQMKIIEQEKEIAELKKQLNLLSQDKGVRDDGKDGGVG
Sequence of 320 wild-type protein kinases (Homo sapiens, UniProt Q13555) (Q13555 whole entry): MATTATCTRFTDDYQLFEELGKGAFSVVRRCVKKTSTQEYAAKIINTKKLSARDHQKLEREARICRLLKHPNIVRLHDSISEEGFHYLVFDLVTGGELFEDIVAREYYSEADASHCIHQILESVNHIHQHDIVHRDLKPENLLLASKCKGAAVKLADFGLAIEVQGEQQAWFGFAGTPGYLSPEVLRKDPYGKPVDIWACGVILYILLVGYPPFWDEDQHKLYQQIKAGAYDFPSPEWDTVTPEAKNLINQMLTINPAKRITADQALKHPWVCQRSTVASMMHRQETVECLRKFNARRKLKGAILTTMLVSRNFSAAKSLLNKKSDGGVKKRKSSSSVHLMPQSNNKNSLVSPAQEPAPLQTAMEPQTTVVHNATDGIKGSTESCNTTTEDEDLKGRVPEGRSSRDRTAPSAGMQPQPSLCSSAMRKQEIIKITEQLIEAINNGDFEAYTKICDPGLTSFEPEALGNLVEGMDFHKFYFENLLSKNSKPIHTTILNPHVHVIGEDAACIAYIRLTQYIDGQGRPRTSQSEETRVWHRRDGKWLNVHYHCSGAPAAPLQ
Sequence of 320 wild-type protein kinases (Homo sapiens, UniProt P51451) (P51451 whole entry): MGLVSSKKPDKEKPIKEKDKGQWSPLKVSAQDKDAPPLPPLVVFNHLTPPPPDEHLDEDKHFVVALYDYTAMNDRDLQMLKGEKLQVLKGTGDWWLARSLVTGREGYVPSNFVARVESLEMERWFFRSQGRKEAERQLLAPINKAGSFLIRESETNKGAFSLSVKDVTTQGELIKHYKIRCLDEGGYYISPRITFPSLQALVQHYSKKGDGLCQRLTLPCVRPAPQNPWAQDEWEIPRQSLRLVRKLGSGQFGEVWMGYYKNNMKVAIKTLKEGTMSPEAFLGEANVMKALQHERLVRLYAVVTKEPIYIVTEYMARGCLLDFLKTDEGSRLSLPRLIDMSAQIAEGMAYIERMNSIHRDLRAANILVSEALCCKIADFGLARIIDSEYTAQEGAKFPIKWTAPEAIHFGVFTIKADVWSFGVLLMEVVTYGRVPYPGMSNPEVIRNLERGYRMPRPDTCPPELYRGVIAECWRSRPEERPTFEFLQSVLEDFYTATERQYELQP
Sequence of 320 wild-type protein kinases (Homo sapiens, UniProt P27037) (P27037 20-513): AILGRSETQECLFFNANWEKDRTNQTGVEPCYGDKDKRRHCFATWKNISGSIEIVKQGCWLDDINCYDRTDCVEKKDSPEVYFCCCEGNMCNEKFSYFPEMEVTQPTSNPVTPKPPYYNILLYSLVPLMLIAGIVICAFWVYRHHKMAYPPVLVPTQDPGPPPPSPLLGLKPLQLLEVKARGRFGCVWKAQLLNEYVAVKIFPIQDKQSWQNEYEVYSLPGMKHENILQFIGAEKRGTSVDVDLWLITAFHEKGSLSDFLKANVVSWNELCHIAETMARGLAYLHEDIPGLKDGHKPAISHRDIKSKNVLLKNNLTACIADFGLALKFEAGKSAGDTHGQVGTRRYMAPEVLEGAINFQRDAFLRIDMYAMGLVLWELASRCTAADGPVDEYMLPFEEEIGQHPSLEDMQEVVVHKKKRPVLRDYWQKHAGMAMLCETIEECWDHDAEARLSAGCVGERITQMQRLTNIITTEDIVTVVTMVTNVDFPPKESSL
Sequence of 320 wild-type protein kinases (Homo sapiens, UniProt P16234) (P16234 24-1089): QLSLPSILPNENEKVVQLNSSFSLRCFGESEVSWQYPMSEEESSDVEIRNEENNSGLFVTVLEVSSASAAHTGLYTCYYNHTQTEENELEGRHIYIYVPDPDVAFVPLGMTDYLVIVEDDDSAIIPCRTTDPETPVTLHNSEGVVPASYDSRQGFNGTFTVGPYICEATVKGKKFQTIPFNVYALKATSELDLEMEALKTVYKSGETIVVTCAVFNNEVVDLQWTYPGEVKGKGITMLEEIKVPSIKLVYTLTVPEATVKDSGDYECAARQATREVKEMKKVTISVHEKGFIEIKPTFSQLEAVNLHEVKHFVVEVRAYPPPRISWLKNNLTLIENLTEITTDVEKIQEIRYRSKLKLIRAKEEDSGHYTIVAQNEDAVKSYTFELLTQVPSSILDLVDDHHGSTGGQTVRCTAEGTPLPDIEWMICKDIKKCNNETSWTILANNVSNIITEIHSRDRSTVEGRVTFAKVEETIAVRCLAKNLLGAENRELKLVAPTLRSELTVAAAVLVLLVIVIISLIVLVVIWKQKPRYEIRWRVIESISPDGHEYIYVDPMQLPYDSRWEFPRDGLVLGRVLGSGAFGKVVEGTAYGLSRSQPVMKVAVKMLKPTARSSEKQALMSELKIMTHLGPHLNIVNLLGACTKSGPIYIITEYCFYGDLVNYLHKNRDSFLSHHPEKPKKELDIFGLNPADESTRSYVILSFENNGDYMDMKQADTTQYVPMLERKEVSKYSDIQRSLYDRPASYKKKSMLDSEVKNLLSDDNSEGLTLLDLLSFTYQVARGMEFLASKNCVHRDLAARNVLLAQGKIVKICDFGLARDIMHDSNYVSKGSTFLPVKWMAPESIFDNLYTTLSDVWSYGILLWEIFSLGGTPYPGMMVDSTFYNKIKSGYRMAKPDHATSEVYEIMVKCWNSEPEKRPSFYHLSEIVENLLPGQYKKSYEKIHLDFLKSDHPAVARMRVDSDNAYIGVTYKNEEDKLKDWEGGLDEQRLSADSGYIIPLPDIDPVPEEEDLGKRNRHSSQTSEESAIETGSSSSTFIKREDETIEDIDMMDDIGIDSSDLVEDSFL
Sequence of 320 wild-type protein kinases (Homo sapiens, UniProt O43293) (O43293 whole entry): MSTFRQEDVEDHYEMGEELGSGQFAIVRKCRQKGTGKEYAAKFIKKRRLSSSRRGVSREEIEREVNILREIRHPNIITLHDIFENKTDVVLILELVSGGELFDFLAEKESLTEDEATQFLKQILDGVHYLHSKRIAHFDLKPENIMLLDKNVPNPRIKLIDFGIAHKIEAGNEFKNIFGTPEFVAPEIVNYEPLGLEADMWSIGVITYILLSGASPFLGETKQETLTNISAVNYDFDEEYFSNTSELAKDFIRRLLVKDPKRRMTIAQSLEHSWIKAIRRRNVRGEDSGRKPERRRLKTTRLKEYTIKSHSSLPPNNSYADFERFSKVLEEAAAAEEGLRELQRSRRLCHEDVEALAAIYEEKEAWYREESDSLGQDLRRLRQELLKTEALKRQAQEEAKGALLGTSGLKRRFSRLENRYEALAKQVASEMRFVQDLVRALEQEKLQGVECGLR

C#Cc1cc(Nc2ncnc3cc(I)ccc23)ccc1Cl [Compound 41]
Residual activity ([1]; DAPK3, 1.0E-06 M): 109 % of control
Residual activity ([1]; DAPK3, 1.0E-07 M): 110 % of control
Residual activity ([2]; 1.0E-06 M): 117 % of control
Residual activity ([2]; 1.0E-07 M): 118 % of control
Residual activity ([3]; 1.0E-06 M): 92 % of control
Residual activity ([3]; 1.0E-07 M): 96 % of control
Residual activity ([4]; 1.0E-06 M): 93 % of control
Residual activity ([4]; 1.0E-07 M): 99 % of control
Residual activity ([5]; 1.0E-06 M): 93 % of control
Residual activity ([5]; 1.0E-07 M): 118 % of control
Residual activity ([6]; ASK1, 1.0E-06 M): 99 % of control
Residual activity ([6]; ASK1, 1.0E-07 M): 95 % of control
Residual activity ([7]; 1.0E-06 M): 89 % of control
Residual activity ([7]; 1.0E-07 M): 108 % of control
Residual activity ([8]; DYRK4, 1.0E-06 M): 96 % of control
Residual activity ([8]; DYRK4, 1.0E-07 M): 99 % of control

C#Cc1cc(Nc2ncnc3cc(OC)c(OC)cc23)ccc1Cl [Compound 45]
Residual activity ([1]; DAPK3, 1.0E-06 M): 114 % of control
Residual activity ([1]; DAPK3, 1.0E-07 M): 112 % of control
Residual activity ([2]; 1.0E-06 M): 95 % of control
Residual activity ([2]; 1.0E-07 M): 105 % of control
Residual activity ([3]; 1.0E-06 M): 96 % of control
Residual activity ([3]; 1.0E-07 M): 101 % of control
Residual activity ([4]; 1.0E-06 M): 62 % of control
Residual activity ([4]; 1.0E-07 M): 99 % of control
Residual activity ([5]; 1.0E-06 M): 91 % of control
Residual activity ([5]; 1.0E-07 M): 116 % of control
Residual activity ([6]; ASK1, 1.0E-06 M): 99 % of control
Residual activity ([6]; ASK1, 1.0E-07 M): 93 % of control
Residual activity ([7]; 1.0E-06 M): 87 % of control
Residual activity ([7]; 1.0E-07 M): 101 % of control
Residual activity ([8]; DYRK4, 1.0E-06 M): 97 % of control
Residual activity ([8]; DYRK4, 1.0E-07 M): 116 % of control
